Measured values: article PMC11239005, “Preclinical studies of RA475, a guanidine-substituted spirocyclic candidate RPN13/ADRM1 inhibitor for treatment of ovarian cancer” (PLOS ONE, 2024)

Tests used:
[1] = tested on: ID8-Vegf Defb29 cells stably expressing firefly luciferase; test: Syngeneic ID8-luc ovarian tumor model, IP; assay type: in vivo; conditions: C57BL6 mice, 40 mg/Kg every 3 days IP
Description: Female C57BL6 mice were inoculated IP with 3x10^5 ID8-Defb29/VegfA-luc cells in 100 μL PBS. At day 3, mice were imaged for basal level luminescence activity with a Xenogen IVIS 200 after IP injection with luciferin (0.3 mg in 100 μL water). Mice were randomized into groups and treated IP with compounds or vehicle (25% (w/v) β-Hydroxypropylcyclodextrin in water), and imaged again on days indicated.
In addition to direct tumor cell killing, it is possible that RA475 may trigger an immunogenic cell death and thus anti-tumor immunity that could contribute to tumor control. Therefore, we elected to first test the treatment potential of RA475 in an ovarian tumor in a syngeneic mouse model. Since ovarian cancer is shed into, and spread within the peritoneal cavity, female C57BL6 mice were injected IP with ID8-Vegf Defb29 cells stably expressing firefly luciferase (0.5 x 10^6 cells ID8-luc) in PBS (100 μL). After 72 h, mice were imaged for their basal luminescence levels using an IVIS200 imager to confirm the presence of viable tumor cells. Mice with visible luminescence were randomized into two groups and treated with Vehicle (25% β-hydroxy propylcyclodextrin in water, 200 μL, every 3 days, IP) and RA475 (40 mg/Kg, every 3 days, IP). Mice were weighed and, after administration of luciferin (100 μL, 7.8 mg/mL), imaged every week to assess bioluminescence associated with tumor burden. […]
Fig 6 Treatment with RA475 of mice bearing an orthotopic syngeneic ovarian cancer model tumor. Female C57BL6 mice bearing ID8-Luc tumor were monitored for tumor burden by IVIS imaging (A), survival (B) and animal weight (C) after treatment with IP treatment every three days with RA475 (40mg/Kg, n = 8) or vehicle alone (n = 7). […] After 72 h, mice were imaged after administration of luciferin (100 μL, 7.8 mg/mL) for their basal luminescence levels using an IVIS200 imager. Mice with visible luminescence were randomized into two groups and treated with Vehicle alone (25% β-hydroxy propylcyclodextrin in water, 200 μL, every 3 days, IP) or RA475 (40 mg/Kg, every 3 days, IP). […]

MDA-MB-468 cells = test: Surface Annexin V display by flow cytometry, MDA-MB-468; assay type: cell-based; conditions: MDA-MB-468, 12 h; RA475 1 or 2 μM, ixazomib 1 μM
Description: The percentage of cells initiating apoptosis was assessed with the annexin V FITC assay kit. The cells (2 × 10^5 cells/well) were treated with the described compounds at selected concentrations for 12 h or 16 h, as indicated. The cells were then collected, washed with PBS, resuspended in 100 μL of annexin V-FITC and 7-AAD dual-stain solution (3 μL Annexin V and 3 μL 7AAD, Catalog Number; 559763-BD bioscience), and incubated 20 min in the dark. The samples were then analyzed via flow cytometry using FlowJo V10 software. All experiments were repeated three times.
Supplementary file pone.0305710.s006.tif: S6 Fig RA475 induced apoptosis in a triple negative breast cancer cell line. […] (TIF)

[2] = Stability in human plasma; assay type: in vitro ADME; conditions: 10 μM, 1 h at 37°C
Description: Human and mouse liver microsomes and NADPH regenerating system solutions were purchased from Corning Life Sciences (Tewsbury, MA). Human and mouse K2EDTA-treated plasma was purchased from BioIVT (Westbury, NY). Metabolic studies in liver microsomes (0.125 mg/mL) were conducted in 1x PBS (pH 7.4), NADPH-generating system, and 10 μM RA475 in a final volume of 250 μL. An incubation mixture with or without NADPH-generating system, as well as a neat solution prepared without microsomes and NADPH-generating system was used. RA475 was added at the same concentration level into human and mouse EDTA plasma. All reactions were initiated with the addition of RA475. Incubations were performed in glass tubes maintained at 37°C in a shaker bath. At 0, 30, and 60 min, 10 μL samples were withdrawn from the reaction mixture, and 0.5 mL of acetonitrile containing internal standard was added to each. Samples were vortex-mixed and subjected to centrifugation for 5 min at 1430 x g. A 10 μL aliquot of the supernatant was injected onto the LC-MS/MS instrument for qualitative analysis using a temperature-controlled autosampling device operating at 5°C (See Pharmacokinetic section).

CD-1 mice = test: Single increasing dose tolerability in CD-1 mice, IP; assay type: in vivo, mouse; conditions: CD-1 mice, single IP doses at or below 80 mg/Kg
Description: (§1) RA475 in 25% β-hydroxy propyl cyclodextrin in water was administered at increasing single doses to CD-1 mice (n = 3/group) via intraperitoneal injection.

[3] = as above; assay type: in vivo, mouse; conditions: CD-1, mouse, in vivo; mice, single dose, IP
Description: as §1

## Cl.Cl.N#Cc1ccc(/C=C2/C(=O)/C(=C/c3ccc(C#N)cc3)C23CCN(C(=N)N)CC3)cc1 [RA475, 1,3-bis((E)-4-cyanobenzylidene)-2-oxo-7-azaspiro[3.5]nonane-7-carboximidamide dihydrochloride]
[1]
  survival: prolonged survival
  tumor burden by bioluminescence: tumor control
[1]; while on treatment
  animal weight: continue to gain weight
MDA-MB-468 cells
  apoptosis by surface Annexin V display: initiated apoptosis
[2]
  stability in plasma: did not degrade
CD-1 mice
  adverse events, including weight loss: No evidence of adverse events
[3]
  NOAEL: > 80 mg/kg
